Data: patent US20210308138A1, “TISSUE TRANSGLUTAMINASE MODULATORS FOR MEDICINAL USE” (Aarhus Universitet, priority 2018, published 2021)

How the values were obtained:
[1] = test system: healthy male BKS(D)-Leprdb/JOrlRj heterozygous mice; experiment: Erectile function in vivo, peak intracavernosal pressure (PICP) over MAP; settings: preliminary in vivo studies
[2] = test system: small mesenteric arteries; experiment: Direct relaxation of U46619 pre-contracted small mesenteric arteries, concentration-response curves; design: species or system Male Wistar rats
Experimental: The small mesenteric arteries were prepared in the same way is described in example 1.
The small mesenteric arteries were pre-contracted with the thromboxane analogue, U46619 (4·10^−7 mol/L) and concentration-response curves for TG2 specific inhibitors, LDN-27219 (10^−8-10^−5 mol/L) and Z-DON (10^−8-3·10^−4 mol/L) were constructed. To study the role of the endothelial pathways in LDN-27219 relaxation, concentration-response curves were constructed for it in arteries whose endothelium had been removed mechanically by rubbing the lumen repeatedly with a human scalp hair.

[3] = test system: small subcutaneous arteries obtained from human biopsies; experiment: Acetylcholine-induced relaxation of human small subcutaneous arteries; settings: LDN-27219 3·10^−6 mol/L; acetylcholine 10^−8-10^−5 mol/L
Experimental: Human subcutaneous arteries were obtained from fat biopsies of the gluteal region from both male and female patients (30-70 years of age) with essential hypertension.
For ‘ex vivo’ studies, animals were randomly selected and euthanized by cervical dislocation and exanguination. The mesenteric arteries were immediately extracted and placed in 4° C. physiological saline solution (PSS, pH=7.4) of the following composition (mmol/L): 119 NaCl, 4.7 KCl, 1.18 KH2PO4, 1.17 MgSO4, 1.5 CaCl2), 24.9 NaHCO3, 0.026 EDTA and 5.5 glucose and small mesenteric arteries (internal diameters of 200-300 μm) were isolated. Human subcutaneous arteries (internal diameters of 300-400 μm) were dissected from the biopsies in the same conditions mentioned above for the mesenteric bed from rodents.
Small human subcutaneous arteries were obtained from fat biopsies from the gluteal region of hypertensive patients and prepared as described in Example 1. Concentration-response curves for LDN-27219 were constructed as described in Example 4 (FIG. 5B) and relaxation measurements were performed as described in Example 1.

[4] = test system: diabetic male BKS(D)-Leprdb/JOrlRj homozygous mice; experiment: Long-term in vivo treatment of diabetic mice, endothelial function as acetylcholine-induced relaxation of small mesenteric arteries; settings: LDN-27219 8 mg/kg/12 h IP for 3 weeks vs candesartan cilexetil 3 mg/kg/24 h in drinking water
Experimental: For long-term ‘in vivo’ experiments, stocks of LDN-27219 dissolved in PEG-400 were diluted in saline solution containing SBE-b-CD to improve solubility (9 mg/mL NaCl; 15% (w/v) SBE-b-CD) […], resulting in a final concentration of 2.00 mg/mL of LDN-27219 in 10% PEG-400/90%(15% (w/v) SBE-b-CD in saline solution). For the treatment on the drinking water 1 mg/ml Candesartan cilexetil was dissolved in a vehicle of polyethylene glycol 400 (10% v/v), ethanol (5% v/v), cremophor EL (2% v/v), and tap water (83% v/v) and the pH was adjusted to 9.0 with 0.5 mol/L Na2CO3 prior to dilution to the final concentration in tap water, as previously described (Seltzer A., et al., Brain Res., 2004, 1028(1), 9-18). Final concentrations needed to achieve the desired doses of candesartan cilexetil per day were determined by measuring water consumption each 3-4 days.
For long-term ‘in vivo’ studies, diabetic homozygous mice were randomly allocated into three groups: 1) treatment with Intraperitoneal (IP) injections of LDN-27219 (8 mg/kg/12 h) and vehicle drinking water [LDN-27219 treatment group], or 2) treatment with IP injections of vehicle (each 12 h) and candesartan cilexetil (3 mg/kg/24 h) in the drinking water [candesartan treatment group], or 3) treatment with IP injections of vehicle (each 12 h) and vehicle drinking water [vehicle treatment group]. […]

NNC(=O)CSc1nc2scc(-c3ccccc3)c2c(=O)n1-c1ccccc1 [LDN-27219]
erectile function, peak intracavernosal pressure (PICP) over MAP [1]: increased erectile function | relaxation of U46619 pre-contracted arteries ([2]; U46619 4·10^−7 mol/L, LDN-27219 10^−8-10^−5 mol/L, Z-DON 10^−8-3·10^−4 mol/L, endothelium intact): induced relaxation | relaxation of U46619 pre-contracted arteries without an endothelium layer ([2]; endothelium removed mechanically): significantly reduced relaxation | endothelium-derived relaxation induced by acetylcholine, compared to vehicle [3]: improves the endothelium-derived relaxation | prevention of diabetes-related endothelial dysfunction [4]: able to prevent diabetes-related endothelial dysfunction better than the long-term treatment with angiotensin II receptor antagonist candesartan cilexetil
